Entries after “also recorded” stand apart in the source; their conditions may differ. Where two headings read alike, the source gives them in different places.
Legend:
[1] = target: T1, GABAA receptors (Rattus norvegicus, UniProt P18508+P62813+P63138); assay type: cell-based
T1 construct: Single pyramidal neurons from the hippocampal CA3 area or Purkinje cells from sagittal slices of the cerebellum were isolated; endogenous in cells; host or cells: acutely isolated Purkinje cells from cerebellar slices of Wistar rats, 11-14 days old
Description: (§1) All experiments were conducted per the requirements of the Ministry of Public Health of the Russian Federation and were consistent with the EU directive for Use of Experimental Animals of the European Community. […] The cells were isolated from transverse hippocampal slices as described in detail elsewhere ([Vorobjev, 1991]). Briefly, the slices (200–500 μm) of Wistar rats (11–14 days of age) hippocampus or cerebellum were incubated at room temperature for at least 2 h in a solution containing the following components (in mM): 124 NaCl, 3 KCl, 2 CaCl2, 2 MgSO4, 25 NaHCO3, 1.3 NaH2PO4, 10 D-glucose, pH 7.4. The saline was continuously stirred and bubbled with carbogen (95% 0_2 + 5% CO2). Single pyramidal neurons from the hippocampal CA3 area or Purkinje cells from sagittal slices of the cerebellum were isolated by a vibrating fused glass pipette with a spherical tip.
(§2) Isolated neurons were patch clamped and then lifted into the outflow of the control bath solution. […] The substances were applied through glass capillary, 0.1 mm in diameter, which could be rapidly displaced laterally ([Vorobjev et al., 1996]). A fast perfusion technique allows a complete exchange of external solution surrounding a neuron within 20 ms. […] Transmembrane currents were recorded using a conventional patch-clamp technique in the whole-cell configuration. […] The solution in the recording pipette contained the following (in mM): 40 CsF, 100 CsCl, 0.5 CaCl2, 5 EGTA, 3 MgCl2, 4 NaATP, 5 HEPES, pH 7.3. The composition of the extracellular solution was as follows (in mM): 140 NaCl, 3 KCl, 3 CaCl2, 3 MgCl2, 10 D-glucose, 10 HEPES hemisodium, and pH 7.4. Recording of the currents was performed using EPC7 patch-clamp amplifier (HEKA Electronik, Germany). The holding potential was maintained at −70 mV. Transmembrane currents were filtered at 3 kHz, stored and analyzed with IBM-PC computer, using homemade software.
(§3) Statistical analysis was performed with the help of Prism Graphpad software. All comparisons were made with ANOVA-test using Dunnett’s multiple comparison test and Student’s unpaired t-test at a significance level of p = 0.05. N = 5–8 cells from 3 to 4 animals for every concentration. […] The meanings of asterisks (probability levels) in figures is the following: ^∗P < 0.05, ^∗∗P < 0.01. The IC50 values for steroids inhibition of the IGly and IGABA were determined using the equation: Y = 1 – [max/(1 + (IC50/C)^n)], where max is the maximum inhibition attainable, C is the concentration of steroid, IC50 is the half-maximal inhibitory concentration and n is the slope factor (Hill coefficient).
(§4) First, the ability of steroids to affect the holding current at voltage-clamp regime was tested. […] The experiments with IGly were conducted on rat hippocampal neurons, and experiments with IGABA were conducted on rat cerebellar Purkinje cells.

[2] = test system: glycine receptor (GlyR); test: Glycine-induced chloride current (IGly), whole-cell patch-clamp in isolated pyramidal neurons of the rat hippocampus; assay type: cell-based; settings: for τdes/τdes control of IGly: 0.1 μM of steroid; for τdes/τdes control of IGly / Ipeak/Ipeak control of IGly: mean ± SEM, normalized; for Ipeak/Ipeak control of IGly: 10 μM of steroid; for Ipeak max (maximum inhibition attainable) of IGly / Ipeak Hill coefficient of IGly: peak amplitude
Description: as §1, §2, §3, §4

[3] = footnote b: did not modulate IGABA up to the concentration of 10 μM, 5 μM GABA
[4] = Hill fit, time constant of desensitization, 100 μM glycine
[5] = read-out: Ipeak IC50 of IGly, inhibition of peak amplitude, 100 μM glycine
[6] = read-out: τdes IC50 of IGly, acceleration of desensitization (decrease in τdes), 100 μM glycine
[7] = time constant of desensitization, 100 μM glycine

T1 sequence (P62813 28-455): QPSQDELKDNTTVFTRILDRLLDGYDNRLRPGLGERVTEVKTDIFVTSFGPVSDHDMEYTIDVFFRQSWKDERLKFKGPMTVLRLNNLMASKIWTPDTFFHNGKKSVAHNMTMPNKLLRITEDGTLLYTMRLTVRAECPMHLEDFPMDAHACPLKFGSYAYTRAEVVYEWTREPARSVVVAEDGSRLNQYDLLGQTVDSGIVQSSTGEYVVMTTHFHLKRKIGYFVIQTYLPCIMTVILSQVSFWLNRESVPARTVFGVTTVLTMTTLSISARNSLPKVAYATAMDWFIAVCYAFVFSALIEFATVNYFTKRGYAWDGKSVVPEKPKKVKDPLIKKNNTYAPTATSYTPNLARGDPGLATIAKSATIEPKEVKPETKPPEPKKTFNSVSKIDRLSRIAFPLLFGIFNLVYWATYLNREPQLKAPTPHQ
T1 sequence (P63138 25-474 limits assumed): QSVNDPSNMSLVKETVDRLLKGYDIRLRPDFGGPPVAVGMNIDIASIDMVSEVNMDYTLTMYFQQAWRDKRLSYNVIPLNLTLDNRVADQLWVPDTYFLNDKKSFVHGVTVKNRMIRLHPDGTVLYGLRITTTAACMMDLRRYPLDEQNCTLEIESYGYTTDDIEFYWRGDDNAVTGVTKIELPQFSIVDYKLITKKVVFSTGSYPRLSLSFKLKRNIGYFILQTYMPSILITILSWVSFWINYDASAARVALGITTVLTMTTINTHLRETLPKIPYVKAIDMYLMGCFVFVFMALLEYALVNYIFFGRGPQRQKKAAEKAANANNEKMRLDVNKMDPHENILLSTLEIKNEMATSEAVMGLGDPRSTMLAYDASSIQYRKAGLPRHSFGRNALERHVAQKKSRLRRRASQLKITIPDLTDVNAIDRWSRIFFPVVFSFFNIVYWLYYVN
T1 sequence (P18508 39-466): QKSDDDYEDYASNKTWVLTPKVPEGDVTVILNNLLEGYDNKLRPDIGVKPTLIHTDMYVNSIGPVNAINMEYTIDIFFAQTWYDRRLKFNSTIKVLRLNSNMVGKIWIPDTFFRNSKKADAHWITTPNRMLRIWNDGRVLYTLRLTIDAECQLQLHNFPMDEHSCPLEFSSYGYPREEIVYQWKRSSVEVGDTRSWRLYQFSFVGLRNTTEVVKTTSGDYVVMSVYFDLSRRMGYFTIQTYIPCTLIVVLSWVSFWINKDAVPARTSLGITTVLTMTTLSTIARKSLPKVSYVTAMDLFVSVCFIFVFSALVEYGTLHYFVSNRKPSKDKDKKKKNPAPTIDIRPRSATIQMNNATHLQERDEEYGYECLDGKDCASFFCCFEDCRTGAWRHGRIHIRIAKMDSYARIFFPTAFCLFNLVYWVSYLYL

Row | Structure (SMILES) | τdes/τdes control of IGABA ([1]; 10 μM of steroid, 5 μM GABA) | Ipeak/Ipeak control of IGABA ([1]; 50 μM of steroid, 5 μM GABA) | τdes/τdes control of IGly ([2]; 100 μM glycine) | τdes IGly (effect on time constant of desensitization) ([2]; 10 μM compound, 100 μM glycine) | Ipeak/Ipeak control of IGly ([2]; 100 μM glycine) | Ipeak max (maximum inhibition attainable) of IGly ([2]; Hill fit, 100 μM glycine) | τdes max (maximum inhibition attainable) of IGly [2, 4] | Ipeak Hill coefficient of IGly ([2]; 100 μM glycine) | IC50 [2, 5] | IC50 [2, 6] | τdes Hill coefficient of IGly [2, 7] | Ipeak/Ipeak control of IGABA [1] | τdes IGABA (effect in words) [1] | τdes/τdes control of IGABA [1] | other results
1 | C[C@]12CCC(=O)C=C1CC[C@@H]1[C@@H]2CC[C@]2(C)C(=O)CC[C@@H]12 [Compound 2, Androst-4-en-3,17-dione] | 0.98 ± 0.02 | 0.77 ± 0.02 | 0.73 ± 0.06 | −84% | 0.82 ± 0.02 | 0.55 ± 0.09 | 0.97 ± 0.10 | 1.1 ± 0.36 | 18.1 ± 2.9 µM | 0.49 ± 0.16 µM | 0.60 ± 0.11 | – | – | – | Acceleration of decay (desensitization) of IGABA ([1]; 50 μM compound, 5 μM GABA): 23–45%; Decrease in the peak amplitude of IGABA ([1]; 50 μM compound, 5 μM GABA): 14–25%; τdes IGABA (effect in words) [1, 3]: ^bNo effect
2 | C[C@]12CCC(=O)C[C@@H]1CC[C@@H]1[C@@H]2CC[C@]2(C)[C@@H](O)CC[C@@H]12 [Compound 3, 17β-Hydroxy-5α-androstan-3-one] | – | – | 0.72 ± 0.06 | – | 0.78 ± 0.03 | 0.61 ± 0.08 | – | 0.86 ± 0.15 | 20.1 ± 2.8 µM | – | – | 0.95 ± 0.03 | ^cNo effect | 0.98 ± 0.02 | Modulation of IGABA (peak amplitude or rate of decay/desensitization) [1]: did not modulate; also recorded: remained inactive; also recorded: did not change; τdes Hill coefficient of IGly [2]: 0.58 ± 0.13; τdes IGly (effect on time constant of desensitization) [2]: −82%; τdes max (maximum inhibition attainable) of IGly [2]: 0.97 ± 0.11; IC50 ([2]; read-out: τdes IC50 of IGly): 0.42 ± 0.14 µM
3 | C[C@]12CCC(=O)C[C@H]1CC[C@@H]1[C@@H]2CC[C@]2(C)C(=O)CC[C@@H]12 [Compound 9, 5β-Androstane-3,17-dione] | – | – | 0.72 ± 0.07 | −68% | 0.77 ± 0.03 | 0.68 ± 0.09 | 0.79 ± 0.11 | 1.0 ± 0.19 | 22 ± 2.8 µM | 0.4 ± 0.12 µM | 0.56 ± 0.14 | 0.99 ± 0.01 | ^cNo effect | 0.97 ± 0.03 | Modulation of IGABA (peak amplitude or rate of decay/desensitization) [1]: did not modulate; also recorded: remained inactive; also recorded: did not change
4 | C[C@]12CC[C@H](O)CC1=CC[C@@H]1[C@@H]2CC[C@]2(C)C(=O)CC[C@@H]12 [Compound 8, 3β-Hydroxy-androst-5-en-17-one] | 0.88 ± 0.05 | 0.75 ± 0.04 | 0.67 ± 0.05 | −79% | 0.70 ± 0.01 | 0.73 ± 0.08 | 0.88 ± 0.09 | 0.92 ± 0.14 | 21.3 ± 2.2 µM | 0.24 ± 0.09 µM | 0.57 ± 0.14 | – | – | – | τdes IGABA (effect on time constant of desensitization) ([1]; 10 μM compound, 5 μM GABA): −12%; Acceleration of decay (desensitization) of IGABA ([1]; 50 μM compound, 5 μM GABA): 23–45%; Decrease in the peak amplitude of IGABA ([1]; 50 μM compound, 5 μM GABA): 14–25%
5 | C[C@]12CC[C@H](O)C[C@@H]1CC[C@@H]1[C@@H]2CC[C@]2(C)C(=O)CC[C@@H]12 [Compound 4, 3β-Hydroxy-5α-androstan-17-one] | – | – | 0.66 ± 0.05 | – | 0.75 ± 0.03 | 0.64 ± 0.08 | – | 0.97 ± 0.21 | 17.1 ± 2.3 µM | – | – | 0.75 ± 0.03 | – | 0.80 ± 0.03 | Acceleration of decay (desensitization) of IGABA [1]: 23–45%; Decrease in the peak amplitude of IGABA [1]: 14–25%; τdes IGABA (effect on time constant of desensitization) [1]: −20%; τdes Hill coefficient of IGly [2]: 0.59 ± 0.16; τdes IGly (effect on time constant of desensitization) [2]: −64%; τdes max (maximum inhibition attainable) of IGly [2]: 0.70 ± 0.07; IC50 ([2]; read-out: τdes IC50 of IGly): 0.12 ± 0.05 µM
6 | C[C@]12CC[C@H]3[C@@H](CCC4=CC(=O)CC[C@@]43C)[C@@H]1CC[C@@H]2O [Compound 1, 17β-Hydroxyandrost-4-en-3-one] | 0.99 ± 0.02 | 0.86 ± 0.03 | 0.68 ± 0.05 | −67% | 0.75 ± 0.03 | 0.58 ± 0.10 | 0.72 ± 0.08 | 1.1 ± 0.32 | 19.3 ± 2.3 µM | 0.13 ± 0.06 µM | 0.58 ± 0.20 | – | – | – | Acceleration of decay (desensitization) of IGABA ([1]; 50 μM compound, 5 μM GABA): 23–45%; Decrease in the peak amplitude of IGABA ([1]; 50 μM compound, 5 μM GABA): 14–25%; τdes IGABA (effect in words) [1, 3]: ^bNo effect; Effect on IGly in words ([2]; 0.1 and 1 μM compound): accelerated desensitization without effect on the peak amplitude; Effect on IGly in words ([2]; 10 and 100 μM compound): acceleration of desensitization and a decrease in peak amplitude
7 | C[C@]12CC[C@H]3[C@@H](CC=C4C[C@@H](O)CC[C@@]43C)[C@@H]1CC[C@@H]2O [Compound 7, 3β,17β-Androst-5-ene-3,17-diol] | – | – | 0.72 ± 0.03 | – | 0.75 ± 0.02 | 0.52 ± 0.09 | – | 0.71 ± 0.16 | 16.2 ± 2.3 µM | – | – | 0.77 ± 0.06 | ^bNo effect | 0.98 ± 0.02 | Acceleration of decay (desensitization) of IGABA [1]: 23–45%; Decrease in the peak amplitude of IGABA [1]: 14–25%; τdes Hill coefficient of IGly [2]: 0.56 ± 0.13; τdes IGly (effect on time constant of desensitization) [2]: −70%; τdes max (maximum inhibition attainable) of IGly [2]: 0.81 ± 0.09; IC50 ([2]; read-out: τdes IC50 of IGly): 0.29 ± 0.12 µM
9 | CN1CCc2cc3c(cc2[C@H]1[C@@H]1OC(=O)c2c1ccc1c2OCO1)OCO3 [bicuculline, reference compound] | – | – | – | – | – | – | – | – | – | – | – | – | – | – | Block of IGABA [1]: reversibly blocked
10 | C[C@]12CC[C@H]3[C@@H](CCC4=CC(=O)CC[C@@]43C)[C@@H]1CC[C@H]2O [Compound 5, 17α-Hydroxyandrost-4-en-3-one] | 0.97 ± 0.03 | 1.12 ± 0.08 | 0.66 ± 0.04 | −72% | 0.80 ± 0.04 | 0.46 ± 0.09 | 0.81 ± 0.11 | 1.2 ± 0.34 | 17 ± 2.9 µM | 0.22 ± 0.08 µM | 0.51 ± 0.15 | – | – | – | τdes IGABA (effect in words) ([1]; footnote c: did not modulate IGABA up to the concentration of 50 μM, 5 μM GABA): ^cNo effect; Modulation of IGABA (peak amplitude or rate of decay/desensitization) ([1]; up to 50 μM compound, 5 μM GABA): did not modulate; also recorded: remained inactive; also recorded: did not change
11 | C[C@]12CCC(=O)C[C@@H]1CC[C@@H]1[C@@H]2CC[C@]2(C)C(=O)CC[C@@H]12 [Compound 6, 5α-Androstane-3,17-dione] | – | – | 0.65 ± 0.03 | −72% | 0.76 ± 0.03 | 0.51 ± 0.05 | 0.86 ± 0.10 | 1.2 ± 0.35 | 16.3 ± 2.4 µM | 0.26 ± 0.09 µM | 0.48 ± 0.10 | 0.92 ± 0.04 | ^cNo effect | 0.99 ± 0.02 | Modulation of IGABA (peak amplitude or rate of decay/desensitization) [1]: did not modulate; also recorded: remained inactive; also recorded: did not change
